From paper PMC8637440, “Structural Modifications Yield Novel Insights Into the Intriguing Pharmacodynamic Potential of Anti-inflammatory Nitro-Fatty Acids” (Frontiers in Pharmacology, 2021)
Read-outs that look alike come from different tables or passages of the source.

Key:
[1] = target: T1, 5-LO (Homo sapiens, UniProt P09917); experiment: 5-LO product formation (LTB4, 5-HETE) in intact PMNL, A23187 in absence of AA; format: cell-based
T1 construct: endogenous in cells; host or cells: human PMNL from buffy coats
T1 sequence (P09917 1-674): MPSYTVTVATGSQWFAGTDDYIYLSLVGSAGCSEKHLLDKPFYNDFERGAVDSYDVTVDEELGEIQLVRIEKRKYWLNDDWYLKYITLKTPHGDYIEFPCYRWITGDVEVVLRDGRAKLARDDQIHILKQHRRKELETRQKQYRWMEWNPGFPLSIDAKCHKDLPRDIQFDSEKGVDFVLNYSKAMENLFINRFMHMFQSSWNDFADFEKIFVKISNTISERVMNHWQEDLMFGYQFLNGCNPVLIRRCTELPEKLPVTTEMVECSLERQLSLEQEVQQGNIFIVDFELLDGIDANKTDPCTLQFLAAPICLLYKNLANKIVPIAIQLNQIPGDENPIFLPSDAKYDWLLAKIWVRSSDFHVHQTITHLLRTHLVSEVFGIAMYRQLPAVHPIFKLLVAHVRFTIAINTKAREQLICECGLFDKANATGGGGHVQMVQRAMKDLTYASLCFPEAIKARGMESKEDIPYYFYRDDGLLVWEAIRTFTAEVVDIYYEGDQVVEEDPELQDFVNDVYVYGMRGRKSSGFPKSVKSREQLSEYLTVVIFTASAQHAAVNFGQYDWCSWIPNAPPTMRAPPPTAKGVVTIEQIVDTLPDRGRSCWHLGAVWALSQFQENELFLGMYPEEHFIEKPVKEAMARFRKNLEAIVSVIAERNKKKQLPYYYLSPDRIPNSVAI
Description: Buffy coats from different donors of different blood types were commercially obtained from DRK Blutspendedienst Baden-Württemberg Institute Frankfurt. Donors have given their written consent. To avoid initial blood clotting only buffy coats from one donor or several donors with the same blood type were combined and diluted with 1× PBS mixed with 5% dextran solution and allowed to stand for 30 min at RT to separate the erythrocytes. Following separation, the supernatant was transferred very gently to new 50-ml tubes containing lymphocyte separation medium (LSM) and centrifuged for 10 min at 800 ×g at RT with the centrifuge brake turned off. Afterwards, the supernatant was decanted carefully to discard the platelets and monocytes. The PMNL were washed with 1× PBS before the residual erythrocytes were lysed in two cycles: the cell pellet was resuspended with 10 ml H2O and vortexed for 45 s, and lysis was stopped with 40 ml 1 × PBS. After 10-min centrifugation at 200 ×g at RT, the cycle was repeated once. The supernatant was aspirated, the cell pellet resuspended in 5 ml PBS/glucose and initially separated PMNL preparations with different blood types were finally pooled to gain a sufficient number of cells.
5-LO activity in intact cells was assayed by measuring LTB4 (leukotriene B4) and 5-HETE (5-hydroxyeicosatetraenoic acid) levels in the PMNL supernatants. […] Recombinant 5-LO enzyme activity was assessed by the determination of 5-HETE levels representing a direct product assay. In the cell-based LO activity assays, 5 × 10^6 cells per ml PBS/glucose were transferred to 5 ml glass tubes containing 1 mM CaCl2 and stored on ice. […] […] Recombinant 5-LO activity assays were carried out using 3 µg r5LO-wt enzyme. The enzyme was diluted in PBS/EDTA/ATP, transferred into 5-ml glass tubes, and stored on ice. […] The samples were then pre-heated at 37°C in a water bath and subsequently stimulated with 1 mM CaCl2 and 20 µM AA for 10 min at 37°C. The reaction was stopped by placing the glass tubes on ice. The supernatants were transferred to 1.5 ml reaction tubes and stored at −80°C before LC-MS (liquid chromatography and mass spectrometry) analysis of LTB4 and HETEs as described in 2.6 at the Institute of Pharmacology, Goethe University, University Hospital, Germany.
For experiments shown in Table 4 samples after treatment were supplemented with 500 µl PBS, 30 µl HCl (1 N), and 200 ng internal standard prostaglandin B1. Those samples containing intact cells were centrifuged for 10 min (870 g, room temperature). […] The eluate was diluted with 125 µl H2O and analyzed by reverse-phase HPLC as previously described ([Steinhilber et al., 1989]). […] Unless otherwise stated, 5-LO metabolites 6-trans-LTB4, 12-epi-6-trans-LTB4, LTB4, and 5-H(p)ETE were quantified.

[2] = target: T2, 12-LO (Homo sapiens, UniProt P18054); experiment: 12-HETE formation in intact PMNL, A23187 in absence of AA; format: cell-based; conditions: read-out: PMNL (w/o AA) 12-HETE IC50
T2 construct: endogenous in cells; host or cells: platelet impurities in human PMNL preparations
T2 sequence (P18054 1-663): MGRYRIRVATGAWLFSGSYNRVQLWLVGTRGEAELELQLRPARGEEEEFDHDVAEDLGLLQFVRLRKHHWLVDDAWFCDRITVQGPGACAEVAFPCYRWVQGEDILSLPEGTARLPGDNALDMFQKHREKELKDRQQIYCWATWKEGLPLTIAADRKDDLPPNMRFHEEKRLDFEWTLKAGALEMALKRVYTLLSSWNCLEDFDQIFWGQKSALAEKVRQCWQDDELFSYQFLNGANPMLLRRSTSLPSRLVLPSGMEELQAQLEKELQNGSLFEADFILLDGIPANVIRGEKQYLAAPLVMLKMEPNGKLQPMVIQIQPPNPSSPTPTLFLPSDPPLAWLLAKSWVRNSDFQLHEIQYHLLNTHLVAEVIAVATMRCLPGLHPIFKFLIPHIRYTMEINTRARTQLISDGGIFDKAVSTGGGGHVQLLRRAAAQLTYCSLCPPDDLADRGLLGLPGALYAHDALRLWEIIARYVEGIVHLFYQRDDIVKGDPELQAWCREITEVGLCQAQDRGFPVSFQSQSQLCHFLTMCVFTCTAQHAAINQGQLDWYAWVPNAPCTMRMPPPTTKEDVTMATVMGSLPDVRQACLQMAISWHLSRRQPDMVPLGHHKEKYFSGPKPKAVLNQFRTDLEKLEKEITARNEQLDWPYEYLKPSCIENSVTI

[3] = read-out: PMNL (w/o AA) 5-HETE IC50
[4] = read-out: PMNL (w/o AA) LTB4 IC50

| Compound | IC50 [1, 3] | IC50 [1, 4] | IC50 [2] |
| --- | --- | --- | --- |
| CCCCCCCCC=C(CCCCCCCC(=O)O)[N+](=O)[O-] [18.9.9, 9-nitro-octadec-9-enoic acid] | 2.34 ± 1.5 µM | 2.58 ± 1.4 µM | 6.26 ± 0.823 µM |
| CCCCCCCCCCC=C(CCCCCCCC(=O)O)[N+](=O)[O-] [20.9.9, 9-nitro-eicos-9-enoic acid] | 2.06 ± 1.34 µM | 2.05 ± 1.25 µM | 15.5 ± 0.74 µM |
